Test results published in patent US20230089867A1, “CYCLIC PENTAMER COMPOUNDS AS PROPROTEIN CONVERTASE SUBTILISIN/KEXIN TYPE 9 (PCSK9) INHIBITORS FOR THE TREATMENT OF METABOLIC DISORDER” (Novartis AG, priority 2018, published 2023).

Target: human PCSK9 (Homo sapiens, UniProt Q8NBP7)
Test: PCSK9 ligand binding TR-FRET assay (interference with binding of human PCSK9 to human LDLR)
Conditions: for Max % inhibition: PCSK9 FRET assay, efficacy (Amax), 100% = 1 uM unlabeled human PCSK9, 0% = DMSO; for IC50: TR-FRET, human PCSK9 Alexa Fluor 647 / human LDLR extracellular domain-Europium Kryptate, read-out: PCSK9 FRET Assay IC50
Protocol: The PCSK9 binding of the compounds of the disclosure were measured using a time resolved fluorescence resonance energy transfer (TR-FRET) assay. This time resolved fluorescence resonance energy transfer (TR-FRET) assay measures the ability of a compound of the present disclosure to interfere with the binding of human PCSK9 to human LDLR, providing measures of both potency (IC50) and efficacy (Amax).
These solutions were pipetted into columns 1 and 11 of the compound plate. Threefold serial dilutions were generated in columns 2-10 and 12-20 of the compound plate by transferring 10 uL into 20 uL of DMSO. Columns 21 and 22 of the compound plate were negative controls containing DMSO alone.
An intermediate plate was generated in a Greiner V bottom plate by transferring 8 uL from each well of the master plate into a corresponding well containing 92 uL of assay buffer and mixing thoroughly.
A Proxi plate-low volume assay plate was used for the assay. […] For the positive control wells in columns 23 and 24 of the plate, 5 uL of unlabeled human PCSK9 was added at 4 uM in assay buffer containing 8% DMSO. Following a 30 minute incubation, 5 uL of 4 nM Human LDLR extracellular domain-Europium Kryptate was added and the mixture was incubated for an additional 2 hours.
The FRET ratio (FRET/Europium) was used for calculations.
Data is expressed as percent inhibition: (value−0%)/(100%−0%).

human PCSK9, sequence (Q8NBP7 153-692): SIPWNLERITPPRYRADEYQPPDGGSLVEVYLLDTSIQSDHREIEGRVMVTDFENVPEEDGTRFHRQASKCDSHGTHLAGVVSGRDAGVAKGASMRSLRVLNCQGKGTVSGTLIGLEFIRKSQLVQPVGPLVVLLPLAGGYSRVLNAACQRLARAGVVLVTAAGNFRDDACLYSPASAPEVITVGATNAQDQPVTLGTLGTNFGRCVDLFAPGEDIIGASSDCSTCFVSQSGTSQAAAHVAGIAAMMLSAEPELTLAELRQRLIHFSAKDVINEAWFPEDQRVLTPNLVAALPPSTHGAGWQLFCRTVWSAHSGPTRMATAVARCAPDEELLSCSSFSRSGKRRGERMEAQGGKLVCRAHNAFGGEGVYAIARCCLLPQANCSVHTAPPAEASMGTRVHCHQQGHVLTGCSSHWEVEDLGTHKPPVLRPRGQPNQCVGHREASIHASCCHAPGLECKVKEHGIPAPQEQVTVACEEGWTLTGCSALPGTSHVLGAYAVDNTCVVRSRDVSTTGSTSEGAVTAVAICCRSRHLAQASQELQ
human PCSK9, sequence (Q8NBP7 31-152 partner limits assumed): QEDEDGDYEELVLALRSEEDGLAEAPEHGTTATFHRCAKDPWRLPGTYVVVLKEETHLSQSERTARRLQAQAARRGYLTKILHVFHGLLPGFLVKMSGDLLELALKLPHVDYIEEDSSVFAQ

Compound	Max % inhibition [%]	IC50 [nM]
COC[C@@H]1NC(=O)[C@H](C)N(Cc2ccc(Cl)cc2Oc2ccc(-c3cnc(CN4CCCC4)n3C)cc2)C(=O)C[C@@H](Cc2ccccc2)C(=O)N(C)[C@@H]2CCOC[C@H]2NC(=O)C[C@H](Cc2ccc(Cl)cc2)N(C)C1=O [Compound 14, (4S,7S,10S,14R,16aR,20aS)-14-benzyl-11-(4-chloro-2-(4-(1-methyl-2-(pyrrolidin-1-ylmethyl)-1H-imidazol-5-yl)phenoxy)benzyl)-4-(4-chlorobenzyl)-7-(methoxymethyl)-5,10,16-trimethyltetradecahydro-1H-pyrano[3,4-l][1,4,7,11,14]pentaazacyclooctadecine-2,6,9,12,15(3H)-pentaone]	93.84	307
COC[C@@H]1NC(=O)[C@H](C)N(Cc2ccc(Cl)cc2Oc2ccc(-c3cnc(CN4CCC4)n3C)cc2)C(=O)C[C@@H](Cc2ccccc2)C(=O)N(C)[C@H]2CCCC[C@@H]2NC(=O)C[C@H](Cc2ccc(Cl)cc2)N(C)C1=O [Compound 16, (4S,7S,10S,14R,16aS,20aS)-11-(2-(4-(2-(azetidin-1-ylmethyl)-1-methyl-1H-imidazol-5-yl)phenoxy)-4-chlorobenzyl)-14-benzyl-4-(4-chlorobenzyl)-7-(methoxymethyl)-5,10,16-trimethylhexadecahydrobenzo[l][1,4,7,11,14]pentaazacyclooctadecine-2,6,9,12,15(3H)-pentaone]	92.71	1.7
COC[C@@H]1NC(=O)[C@H](CN2CCC2)N(Cc2ccc(Cl)cc2Oc2ccc(-c3cnc(CN(C)C)n3C)cc2)C(=O)C[C@@H](Cc2ccccc2)C(=O)N(C)[C@@H](C)CNC(=O)C[C@H](Cc2ccc(Cl)cc2)N(C)C1=O [Compound 17, (2S,5S,8S,13S,16R)-2-(azetidin-1-ylmethyl)-16-benzyl-1-(4-chloro-2-(4-(2-((dimethylamino)methyl)-1-methyl-1H-imidazol-5-yl)phenoxy)benzyl)-8-(4-chlorobenzyl)-5-(methoxymethyl)-7,13,14-trimethyl-1,4,7,11,14-pentaazacyclooctadecane-3,6,10,15,18-pentaone]	81.08	61.2
COC[C@@H]1NC(=O)[C@H](C)N(Cc2ccc(Cl)cc2Oc2ccc(-c3cnc(CN(C)C)n3C)cc2)C(=O)C[C@@H](Cc2ccon2)C(=O)N(C)[C@H]2CCCC[C@@H]2NC(=O)C[C@H](Cc2ccc(Cl)cc2)N(C)C1=O [Compound 18, (4S,7S,10S,14R,16aS,20aS)-11-(4-chloro-2-(4-(2-((dimethylamino)methyl)-1-methyl-1H-imidazol-5-yl)phenoxy)benzyl)-4-(4-chlorobenzyl)-14-(isoxazol-3-ylmethyl)-7-(methoxymethyl)-5,10,16-trimethylhexadecahydrobenzo[l][1,4,7,11,14]pentaazacyclooctadecine-2,6,9,12,15(3H)-pentaone]	86.12	1.1
COC[C@@H]1NC(=O)[C@H](C)N(Cc2ccc(Cl)cc2Oc2ccc(-n3cnc(CN4CCCC4)c3C)cc2)C(=O)C[C@@H](Cc2ccccc2)C(=O)N(C)[C@H]2CCCC[C@@H]2NC(=O)C[C@H](Cc2ccc(Cl)cc2)N(C)C1=O [Compound 19, (4S,7S,10S,14R,16aS,20aS)-14-benzyl-11-(4-chloro-2-(4-(5-methyl-4-(pyrrolidin-1-ylmethyl)-1H-imidazol-1-yl)phenoxy)benzyl)-4-(4-chlorobenzyl)-7-(methoxymethyl)-5,10,16-trimethylhexadecahydrobenzo[l][1,4,7,11,14]pentaazacyclooctadecine-2,6,9,12,15(3H)-pentaone]	106.65	1.5
COC[C@@H]1NC(=O)[C@H](CC(=O)N2CCOCC2)N(Cc2ccc(Cl)cc2Oc2ccc(-c3cnc(CN(C)C)n3C)cc2)C(=O)C[C@@H](Cc2ccccc2)C(=O)N(C)[C@H]2CCCC[C@@H]2NC(=O)C[C@H](Cc2ccc(Cl)cc2)N(C)C1=O [Compound 20, (4S,7S,10S,14R,16aS,20aS)-14-benzyl-11-(4-chloro-2-(4-(2-((dimethylamino)methyl)-1-methyl-1H-imidazol-5-yl)phenoxy)benzyl)-4-(4-chlorobenzyl)-7-(methoxymethyl)-5,16-dimethyl-10-(2-morpholino-2-oxoethyl)hexadecahydrobenzo[l][1,4,7,11,14]pentaazacyclooctadecine-2,6,9,12,15(3H)-pentaone]	98.33	1.2
CC(O)c1ncc(-c2ccc(Oc3cc(Cl)ccc3CN3C(=O)C[C@@H](Cc4ccccc4)C(=O)N(C)[C@@H](C)CNC(=O)C[C@H](Cc4ccc(Cl)cc4)N(C)C(=O)[C@H](CO)NC(=O)[C@@H]3C)cc2)n1C (stereo partly drawn) [Compound 21, (2S,5S,8S,13S,16R)-16-benzyl-1-(4-chloro-2-(4-(2-(1-hydroxyethyl)-1-methyl-1H-imidazol-5-yl)phenoxy)benzyl)-8-(4-chlorobenzyl)-5-(hydroxymethyl)-2,7,13,14-tetramethyl-1,4,7,11,14-pentaazacyclooctadecane-3,6,10,15,18-pentaone]	66.09	2.4
COC[C@@H]1NC(=O)[C@H](C)N(Cc2ccc(Cl)cc2Oc2ccc(-c3cnc(CN4CCCC4)n3C)cc2)C(=O)C[C@@H](Cc2ccc(F)cc2F)C(=O)N(C)[C@@H](C)CNC(=O)C[C@H](Cc2ccc(Cl)cc2)N(C)C1=O [Compound 22, (2S,5S,8S,13S,16R)-1-(4-chloro-2-(4-(1-methyl-2-(pyrrolidin-1-ylmethyl)-1H-imidazol-5-yl)phenoxy)benzyl)-8-(4-chlorobenzyl)-16-(2,4-difluorobenzyl)-5-(methoxymethyl)-2,7,13,14-tetramethyl-1,4,7,11,14-pentaazacyclooctadecane-3,6,10,15,18-pentaone]	98.82	1.1
CCc1ccc(CN2C(=O)C[C@@H](Cc3ccccc3)C(=O)N(C)[C@H]3CCCC[C@@H]3NC(=O)C[C@H](Cc3ccc(Cl)cc3)N(C)C(=O)[C@H](COC)NC(=O)[C@@H]2C)c(Oc2ccc(-c3cnc(CN4CC5(COC5)C4)n3C)cc2)c1 [Compound 23, (4S,7S,10S,14R,16aS,20aS)-11-(2-(4-(2-(2-oxa-6-azaspiro[3.3]heptan-6-ylmethyl)-1-methyl-1H-imidazol-5-yl)phenoxy)-4-ethylbenzyl)-14-benzyl-4-(4-chlorobenzyl)-7-(methoxymethyl)-5,10,16-trimethylhexadecahydrobenzo[l][1,4,7,11,14]pentaazacyclooctadecine-2,6,9,12,15(3H)-pentaone]	96.76	2.2
C[C@H]1CNC(=O)C[C@H](Cc2ccc(Cl)cc2)NC(=O)[C@H](CF)NC(=O)[C@H](C)N(Cc2ccc(Cl)cc2Oc2ccc(-c3cnc(CN4CCCC4)n3C)cc2)C(=O)C[C@@H](Cc2ccccc2)C(=O)N1C [Compound 25, (2S,5R,8S,13S,16R)-16-benzyl-1-(4-chloro-2-(4-(1-methyl-2-(pyrrolidin-1-ylmethyl)-1H-imidazol-5-yl)phenoxy)benzyl)-8-(4-chlorobenzyl)-5-(fluoromethyl)-2,13,14-trimethyl-1,4,7,11,14-pentaazacyclooctadecane-3,6,10,15,18-pentaone]	52.86	113
